Data as given in patent US11225565B2, “Purification of sugammadex” (SYNTHON B.V., priority 2018, dated 2022).

Legend:
[1] = Osmolality of sugammadex solution in water (OSMOMAT 3000, freezing point comparison); format: physicochemical; conditions: concentration 108 mg/ml
Method: Osmolality was measured using OSMOMAT 3000 (Gonotec), a solution (concentration 108 mg/ml) of sugammadex in water was used. The osmolality of the solution was obtained by comparison of freezing point of the sugammadex solution and the freezing point of water.

[2] = Sodium content of sugammadex samples by potentiometric titration with HClO4; format: physicochemical; conditions: sugammadex solution in glacial acetic acid, 3 mg/ml, titrated with 0.1 M HClO4
Method: The sodium content was obtained by titration of sugammadex solution in glacial acetic acid (concentration 3 mg/ml) using 0.1 M solution of HClO4 using Titrator 794 DMS Titrino, Metrohm. The endpoint (VEQ) was determined potentiometrically.

Substance | Osmolality [1] | Sodium content % (wt/wt) based on amount of sugammadex [2]
6A,6B,6C,6D,6E,6F,6G,6H-Octakis-S-(2-carboxyethyl)-6A,6B,6C,6D,6E,6F,6G-octasulfanyl-gamma-cyclodextrin octasodium salt [Example 1] | 322 mOsmol/kg | 8.5 % (wt/wt)
6A,6B,6C,6D,6E,6F,6G,6H-Octakis-S-(2-carboxyethyl)-6A,6B,6C,6D,6E,6F,6G-octasulfanyl-gamma-cyclodextrin octasodium salt [Example 4 of WO2017144734 application, reference compound] | 986 mOsmol/kg | 11.14 % (wt/wt)
6A,6B,6C,6D,6E,6F,6G,6H-Octakis-S-(2-carboxyethyl)-6A,6B,6C,6D,6E,6F,6G-octasulfanyl-gamma-cyclodextrin octasodium salt [Example 5] | 335 mOsmol/kg | 8.5 % (wt/wt)
6A,6B,6C,6D,6E,6F,6G,6H-Octakis-S-(2-carboxyethyl)-6A,6B,6C,6D,6E,6F,6G-octasulfanyl-gamma-cyclodextrin octasodium salt [Example 3] | 349 mOsmol/kg | 8.5 % (wt/wt)
6A,6B,6C,6D,6E,6F,6G,6H-Octakis-S-(2-carboxyethyl)-6A,6B,6C,6D,6E,6F,6G-octasulfanyl-gamma-cyclodextrin octasodium salt [Example 4] | 346 mOsmol/kg | 8.5 % (wt/wt)
6A,6B,6C,6D,6E,6F,6G,6H-Octakis-S-(2-carboxyethyl)-6A,6B,6C,6D,6E,6F,6G-octasulfanyl-gamma-cyclodextrin octasodium salt [Example 2] | 320 mOsmol/kg | 8.5 % (wt/wt)
6A,6B,6C,6D,6E,6F,6G,6H-Octakis-S-(2-carboxyethyl)-6A,6B,6C,6D,6E,6F,6G-octasulfanyl-gamma-cyclodextrin octasodium salt [Example 6] | 348 mOsmol/kg | 8.5 % (wt/wt)
